# Where two headings read alike, the source gives them in different places.
# How the values were obtained:
# [1] = Aqueous solubility; assay type: physicochemical
# [2] = test system: E13.5 embryonic kidneys; experiment: Embryonic kidney organ culture model of PKD (8-Br-cAMP-induced cyst growth); assay type: cell-based, mouse
# Protocol: Embryonic Organ Culture Model of PKD—Mouse embryos were obtained at embryonic day 13.5 (E13.5). Metanephroi were dissected and placed on transparent Falcon […] porous cell culture inserts as described (see, e.g., Tradtrantip et al., J. Med. Chem. 2009, supra). To the culture inserts was added DMEM/Ham's F-12 nutrient medium supplemented with 2 mM L-glutamine, 10 mM HEPES, 5 μg/mL insulin, 5 μg/mL transferrin, 2.8 nM selenium, 25 ng/ml prostaglandin E, 32 pg/ml T3, 250 U/ml penicillin, and 250 μg/ml streptomycin. Kidneys were maintained in a 37° C. humidified CO2 incubator for up to 8 days. Culture medium containing 100 μM 8-Br-cAMP, with or without test compound, was replaced (in the lower chamber) every 12 h. Kidneys were photographed using a Nikon inverted microscope (Nikon TE 2000-S) equipped with 2× objective lens, 520 nm bandpass filter, and high-resolution CCD camera. Percentage cyst area was calculated as total cyst area divided by total kidney area.
# An established embryonic ex vivo kidney organ culture model of PKD was used to test BPO-27 (racemic mixture of R and S forms) efficacy in reducing cAMP agonist-induced renal cystogenesis (see Example 30). […]
# [3] = target: T1, human wildtype CFTR (Homo sapiens, UniProt P13569); experiment: Fluorescence plate reader assay of CFTR inhibition (iodide influx); assay type: cell-based; set-up: expressed in transfected cells; host or cells: Fischer rat thyroid (FRT) cells; conditions: Determined by micro-plate reader assay; FRT cells co-expressing human wild type CFTR and YFP-H148Q
# Protocol: Cell Culture and Plate Reader Assay of CFTR Inhibition—Fischer rat thyroid (FRT) cells co-expressing human wild type CFTR and the halide indicator YFP-H148Q were cultured in 96-well black-walled microplates (Corning Costar) at a density of 20,000 cells per well in Coon's modified F12 medium containing 10% fetal bovine serum, 2 mM L-glutamine, 100 U/mL penicillin and 100 μg/mL streptomycin. CFTR chloride conductance was assayed at 48 h after plating on a FluoStar fluorescence plate reader (BMG Lab Technologies) as described (see, e.g., Ma et al., J Clin Invest. 2002, supra). Each well was washed 3 times with PBS, leaving 60 μL PBS. Test compounds were added and incubated with the cells for 45 min. Then, 5 μL of a CFTR-activating cocktail (10 μM forskolin, 100 μM IBMX, 20 μM apigenin in PBS) was added. After 15 min, each well was assayed for iodide influx by recording fluorescence continuously (200 ms per point) for 2 s (baseline) and then for 10 s after rapid addition of 160 μL of isosmolar PBS in which 137 mM chloride was replaced by iodide. The initial rate of iodide influx was computed from fluorescence data by non-linear regression.
# Initial testing of the compounds for the capability to inhibit CFTR was performed using a plate-reader assay in which iodide influx was measured in FRT cells co-expressing human wild type CFTR and the iodide-sensing yellow fluorescent protein YFP-H148Q/1152L. […] Table B below provides IC50 values for PPQ and BPO compounds.
# The relative IC50 values obtained from the plate reader assay are useful for comparisons. Absolute IC50 values obtained from the plate-reader assay are approximate, generally underestimating compound potency because of assay non-linearities, pH-dependent YFP fluorescence, the use of iodide instead of chloride, and compound dilution at the start of the assay (see, e.g., Galietta et al., Am. J. Physiol. Cell Physiol. 281:C1734-42 (2001)).
# [4] = target: T1, human wildtype CFTR; experiment: Short-circuit current analysis of CFTR inhibition in CFTR-expressing FRT cells; assay type: cell-based; set-up: expressed in transfected cells; host or cells: Fischer rat thyroid (FRT) epithelial cells on Snapwell inserts
# Protocol: Short-Circuit Current—Snapwell inserts containing CFTR-expressing FRT cells were mounted in an Ussing chamber. The hemichambers contained 5 mL of buffer containing 75 mM NaCl and 75 mM Na gluconate (apical) and 150 mM NaCl (basolateral) (pH 7.3), and the basolateral membrane was permeabilized with 250 μg/mL amphotericin B, as described (see, e.g., Sonawane et al., FASEB J 2006, supra). Short-circuit current was recorded continuously using a DVC-1000 voltage clamp (World Precision Instruments) using Ag/AgCl electrodes and 3 M KCl agar bridges.
# Current was measured in CFTR-expressing FRT cells in which the basolateral membrane was permeabilized and in the presence of a transepithelial chloride concentration gradient, so that current is a quantitative linear measure of CFTR function. CFTR was activated by forskolin, followed by serial additions of increasing concentrations of test compounds.
# CFTR inhibition potency was measured by short-circuit current analysis in FRT epithelial cells expressing human CFTR in presence of a transepithelial chloride gradient and in which the basolateral membrane was permeabilized with amphotericin B. Under these conditions short-circuit current is proportional to CFTR chloride conductance.
# [5] = test system: E13.5 embryonic kidneys; conditions: from Tradtrantip et al., J. Med. Chem. 2009; read-out: IC50 for inhibition of cyst growth; cited from earlier work
# [6] = target: CFTR (Homo sapiens, UniProt P13569); conditions: literature values; read-out: IC50 for CFTR inhibition; cited from earlier work
# [7] = short-circuit current, FRT cells expressing human CFTR, forskolin-stimulated, read-out: IC50 for inhibition of CFTR chloride conductance
# T1 sequence (P13569 whole entry): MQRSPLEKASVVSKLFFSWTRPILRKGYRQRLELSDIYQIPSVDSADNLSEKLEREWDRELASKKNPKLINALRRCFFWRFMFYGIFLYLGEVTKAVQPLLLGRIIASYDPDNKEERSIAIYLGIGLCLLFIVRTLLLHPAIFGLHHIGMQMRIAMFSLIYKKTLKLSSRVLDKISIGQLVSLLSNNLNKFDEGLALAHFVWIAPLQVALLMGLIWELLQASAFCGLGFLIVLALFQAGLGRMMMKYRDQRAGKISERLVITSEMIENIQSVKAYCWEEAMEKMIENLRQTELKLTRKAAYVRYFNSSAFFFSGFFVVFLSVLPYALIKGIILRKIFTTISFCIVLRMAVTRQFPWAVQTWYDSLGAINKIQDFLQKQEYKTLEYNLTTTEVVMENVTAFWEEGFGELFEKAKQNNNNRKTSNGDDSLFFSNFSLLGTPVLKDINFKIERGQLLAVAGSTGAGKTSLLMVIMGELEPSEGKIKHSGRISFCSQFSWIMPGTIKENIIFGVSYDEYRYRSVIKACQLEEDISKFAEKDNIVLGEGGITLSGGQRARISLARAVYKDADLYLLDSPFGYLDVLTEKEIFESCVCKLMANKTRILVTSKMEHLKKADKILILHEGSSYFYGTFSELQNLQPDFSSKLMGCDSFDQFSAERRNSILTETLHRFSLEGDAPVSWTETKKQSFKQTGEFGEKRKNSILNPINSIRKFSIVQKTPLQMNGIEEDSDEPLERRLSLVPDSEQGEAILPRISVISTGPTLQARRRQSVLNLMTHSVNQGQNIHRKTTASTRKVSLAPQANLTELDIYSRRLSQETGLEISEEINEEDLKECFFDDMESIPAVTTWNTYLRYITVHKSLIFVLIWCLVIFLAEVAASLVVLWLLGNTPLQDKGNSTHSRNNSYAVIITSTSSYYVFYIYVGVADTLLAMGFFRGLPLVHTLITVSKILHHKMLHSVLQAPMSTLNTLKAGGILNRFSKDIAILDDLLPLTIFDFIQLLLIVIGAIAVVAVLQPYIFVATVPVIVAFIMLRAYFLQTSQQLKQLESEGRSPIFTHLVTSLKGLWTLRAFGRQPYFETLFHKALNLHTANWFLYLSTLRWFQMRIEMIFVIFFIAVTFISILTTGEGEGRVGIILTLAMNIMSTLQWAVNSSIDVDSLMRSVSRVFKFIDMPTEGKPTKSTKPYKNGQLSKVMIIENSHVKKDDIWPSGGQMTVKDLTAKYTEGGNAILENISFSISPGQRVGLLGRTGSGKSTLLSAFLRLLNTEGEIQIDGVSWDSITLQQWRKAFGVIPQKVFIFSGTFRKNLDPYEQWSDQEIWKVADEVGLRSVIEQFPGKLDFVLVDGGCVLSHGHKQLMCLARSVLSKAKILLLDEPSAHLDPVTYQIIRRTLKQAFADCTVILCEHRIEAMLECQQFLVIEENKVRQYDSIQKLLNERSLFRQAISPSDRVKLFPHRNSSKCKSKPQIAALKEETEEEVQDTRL
# Sequence of CFTR (P13569 whole entry, species assumed): as the sequence (P13569 whole entry) above
SMILES,"solubility ([1]; pH 7.4 aqueous phosphate buffer, read-out: solubility) [µM]","IC50 ([2]; Mus musculus, 100 μM 8-Br-cAMP, racemic mixture, read-out: IC50 for inhibition of cyst growth (percentage area occupied by cysts)) [nM]","cyst growth in 8-Br-cAMP-treated kidney (in words) ([2]; compound in culture medium, 0.1 or 1 μM)",IC50 [3] [nM],"IC50 ([4]; Determined by short-circuit current assay, read-out: IC50 (μM)^B) [µM]","IC50 [4, 7] [µM]","solubility ([1]; albumin-free saline, saline or isotonic, read-out: water solubility) [µM]",IC50 [5] [nM],IC50 [6] [nM]
"Cn1c(=O)c2c(-c3ccccc3)n3c(c2n(C)c1=O)C(c1ccc(Br)o1)Oc1ccc(C(=O)O)cc1-3 (racemic) [BPO-27, 6-(5-Bromofuran-2-yl)-7,9-dimethyl-8,10-dioxo-11-phenyl-7,8,9,10-tetrahydro-6H-benzo[b]pyrimido[4′,5′:3,4]pyrrolo[1,2-d][1,4]oxazine-2-carboxylic acid]",17,~100,remarkably reduced,40,0.008,~0.008,,,
"Cc1ccc(C2Nc3ccccc3-n3c(-c4ccccc4)c4c(=O)n(C)c(=O)n(C)c4c32)o1 (centres unmarked) [PPQ-102, 7,9-Dimethyl-6-(5-methylfuran-2-yl)-11-phenyl-5,6-dihydropyrimido[4′,5′-3,4]pyrrolo[1,2-a]quinoxaline-8,10-(7H,9H)-dione, reference compound]",,,,250,,0.1,~2,> 500,~90

# — patent USRE48842E1, “Pyrimido-pyrrolo-oxazine-dione compound inhibitors of the cystic fibrosis transmembrane conductance regulator protein and uses therefor” (The Regents of the University of California, priority 2011, dated 2021)
